One series relates to T. b. brucei. In words: Growth of T. b. brucei trypomastigotes in axenic culture. The class given is cell-based. Conditions: Trypanosoma brucei; CSV supplement; decimal comma; read-out: EC50 T.b. brucei Squib 427. An excerpt:
(§1) We previously reported the synthesis of a series of macrocycles, including 1 (Figure 2A), designed to investigate how structural features influence molecular chameleonicity.[15],[21] Originating from the structural similarities between 1 and hymenocardine, we investigated 1 in screens for P. falciparum and four kinetoplastid parasites: T. b. brucei, T. b. rhodesiense, T. cruzi, and L. infantum. In the screens, we also included compounds 2 and 3 (Figure 2A), which were obtained from an intermediate late in the synthetic route to 1. Since very few validated protein targets relevant to clearance of parasites are known, phenotypic assays were used to investigate the antiparasitic activity for all five parasites. For malaria, the P. falciparum blood stage 3D7 strain was used to test the three compounds. For the two Trypanosoma brucei species, the reduction in trypomastigote growth in culture medium was determined after the addition of 1–3. For T. cruzi, the intracellular parasite growth in infected human fibroblasts (MRC-5 cell line) was assessed in the presence and absence of the three inhibitors. Similarly, the growth of L. infantum was assessed in infected primary mouse macrophages (PMMs) in the presence and absence of the inhibitors. […] The assays for T. cruzi and L. infantum are complex, i.e., they determine the degree of inhibition of parasitic replication in a mammalian cell line; this complexity may lead to a high variability for some compounds.
(§2) The growth of the P. falciparum blood stage 3D7 strain,[53] the two T. brucei species in axenic cultures,[54]T. cruzi in infected human fibroblasts (MRC-5 cell line),[55] and of L. infantum in infected primary mouse macrophages (PMMs)[56] was determined as previously reported in the presence and absence of inhibitors 1–12.

A further series concerns T. b. rhodesiense. As to the kind of experiment: Growth of T. b. rhodesiense trypomastigotes in axenic culture. The class given is cell-based, Trypanosoma brucei rhodesiense. Conditions: for EC50: Trypanosoma brucei, RHODESIENSE / STIB900, CSV supplement, decimal comma, read-out: EC50 T.b. rhodesiense STIB 900; for activity as inhibitor of T. b. rhodesiense (in words): text on Table S1.
Text: as §1, §2

The subject of the next series is T. cruzi. In words: Intracellular growth of T. cruzi in infected human fibroblasts (MRC-5 cell line). The class given is cell-based. Conditions: Trypanosoma cruzi.
Text: as §1, §2

A further series has as its system L. infantum. As to the kind of experiment: Growth of L. infantum in infected primary mouse macrophages (PMMs), phenotypic assay. The format is cell-based, Leishmania infantum. The settings on record: for EC50: Leishmania infantum, Macrophage.
Text: as §1
(§3) The potency of macrocycles 1–12 to inhibit the growth of L. infantum was determined in a phenotypic assay in which the parasite was grown in primary peritoneal mouse macrophages (PMMs). To understand whether the SAR for inhibition of parasitic growth is impacted by low cell permeability, the permeability of compounds 1–12 was determined separately. Madin-Darby canine kidney (MDCK) cells transfected with the human MDR1 (multidrug resistance 1) gene (MDCK-MDR1 cells) were used to determine permeabilities in the apical to basolateral direction (Papp AB) as well as efflux ratios (ERs). […] Lipophilicity (Log D at pH 7.4), aqueous kinetic solubility and mouse liver microsomal metabolism were also determined for 1–12, and are discussed separately (cf. physiochemical properties and ADMET, below).
as §2

The test system of another series is MRC-5 cells. In words: Host cell cytotoxicity in MRC-5 cells. The class given is cell-based, human. The settings on record: CSV supplement; decimal comma.
The subject of series [1] is primary mouse macrophages (PMMs). As to the kind of experiment: Host cell cytotoxicity in primary mouse macrophages (PMM). The format is cell-based. Conditions: CSV supplement; decimal comma.
For another series, the system named is MDR1. In words: in vitro. The format is in vitro ADME, canine. The settings on record: dog; for Papp B→A: MDCK-MDR1, pH 7.4; for Papp A→B: MDCK-MDR1, pH 7.4, Papp AB. The method, then:
as §3
(§4) The kinetic solubility in phosphate buffered saline at pH 7.4, chromatographic Log D at pH 7.4, cell permeability across a MDCK-MDR1 cell monolayer at pH 7.4, and the clearance in mouse liver microsomes of 1–12 was determined at TCG Lifesciences.

The nature of series [2]: Kinetic solubility in phosphate buffered saline at pH 7.4. The format is physicochemical. The settings on record: phosphate buffered saline. The method, then: as §4
Series [3] is described as follows: Chromatographic Log D at pH 7.4. The format is physicochemical. The settings on record: 1-octanol/PBS pH 7.4, determined by chromatography, mean of two measurements. The method, then: as §4
Series [4] in a line: Clearance in mouse liver microsomes. The settings on record: for microsomal CLint: mouse, liver microsomes. The format is in vitro ADME. The method, then: as §4
Series [5] can be described thus: Clearance in human microsomes. Conditions: CSV supplement; for microsomal CLint: human, microsomes, read-out: CLint in vitro Human Microsomes. The class given is in vitro ADME. The source says: Supplement jm4c01370_si_002.csv, table | column: CLint in vitro Human Microsomes µL/min/mg; t(1/2) min
Setting [6] is: TULAHUEN, MRC5, read-out: EC50 T. cruzi Tulahuen C4 (LacZ).
Where [7] appears, read: Table 1, mean (standard deviation, number of measurements), read-out: EC50 (μM), inhibition of the growth of L. infantum.
The mark [8] stands for this setting: MDCK-MDR1, pH 7.4, ER, efflux ratio (BA/AB).
[9] abbreviates: MDCK-MDR1, pH 7.4, MDCK MDR1 - pH 7.4 Efflux Ratio.
The mark [10] stands for this setting: pH 7.4, CSV supplement, read-out: Kinetic solubility.
[11] abbreviates: pH 7.4, phosphate buffered saline pH 7.4, assay range 2.5–200 μM, read-out: solubility (kinetic).
Where [12] appears, read: CSV supplement, read-out: CLint in vitro Mouse Microsomes.
The mark [13] stands for this setting: incubation with mouse liver microsomes, read-out: CLint.

The record followed here is publication PMC11513892, “Discovery of a Series of Macrocycles as Potent Inhibitors of Leishmania Infantum” (Journal of Medicinal Chemistry, 2024).

In general, Papp B→A refers to how fast a substance crosses the layer from the basolateral side. A word on the efflux ratio: it is the permeability from basolateral to apical divided by that in the opposite direction, in the common usage. As usually defined, the Papp A→B is how fast a substance crosses the layer from the apical side. A low value points to poor permeation. As usually defined, the solubility (kinetic) is the concentration staying in solution when a stock, usually in DMSO, is diluted into the medium. The chromatographic logD is a lipophilicity value derived from retention on a column.

Each structure is given as a SMILES string. Read-outs that look alike come from different tables or passages of the source. Where only a bound is given, the exact number is not on record here.

With `CC(C)(C)OC(=O)N[C@H]1CCc2ccc(cc2)Oc2ccc(cc2NC(=O)c2ccccn2)C(=O)CNC(=O)[C@H](Cc2ccccc2)NC1=O` [Compound 5, tert-Butyl ((8S,11S)-8-Benzyl-4,7,10-trioxo-3^2-(picolinamido)-2-oxa-6,9-diaza-1,3(1,4)-dibenzenacyclotridecaphane-11-yl)carbamate], the EC50 turned out to be 7.4 µM with T. b. brucei; 5.6 µM with T. b. rhodesiense; 18 µM in the series with T. cruzi (setting [6]); 16.6 µM with L. infantum (CSV supplement, decimal comma, read-out: EC50 L. infantum MHOM/MA(BE)/67); 17 µM in the series on L. infantum (setting [7]). The “loss in potency compared to 3, L. infantum” value with L. infantum (relative to compound 3) was ~10 fold. In the series with MRC-5 cells, the “MRC-5 cells Human Lung Fibroblast Cells (cytotoxicity)” value is recorded as >64 µM. In addition, the “PMM Primary Mouse Macrophages (inf-LMPH) (cytotoxicity)” value (shortened to “PMM Primary Mouse Macrophages”) in [1] is on record as >64 µM. Besides, in the series with MDR1, the Papp B→A was 17.3 ×10⁻⁶ cm/s. Besides, the efflux ratio with MDR1 (setting [8]) turned out to be 13; with MDR1 (setting [9]), 13.2. In the series with MDR1, the Papp A→B stood at 1.3 ×10⁻⁶ cm/s. For the same compound, the figures for the solubility (kinetic) in [2] (setting [10]) and in series [2] (setting [11]) were 1.8 µg/mL and 2.7 µM, respectively. The compound further showed a chromatographic logD in [3] of 4.8. Besides, in [4] (CSV supplement), the “t(1/2), Mouse Microsomes” value is on record as <3 min. For the same compound, the microsomal CLint in series [4] (setting [12]) was > 578 µL/min/mg; in [4] (setting [13]) it was > 580 µL/min/mg; in series [5], > 578 µL/min/mg. In [5], the “t(1/2), Human Microsomes” value is <3 min.
Take `CC(C)(C)OC(=O)N[C@H]1Cc2ccc(cc2)Oc2ccc(cc2NC(=O)c2ccccn2)C(=O)CNC(=O)[C@H](c2ccccc2)NC1=O` [Compound 9, tert-Butyl ((8S,11S)-4,7,10-Trioxo-8-phenyl-3^2-(picolinamido)-2-oxa-6,9-diaza-1,3(1,4)-dibenzenacyclododecaphane-11-yl)carbamate]: the EC50 in the series on T. b. brucei was 7.7 µM; in the series on T. b. rhodesiense it was 1.9 µM; in the series with T. cruzi (MRC5, Table S1, mean (SD), 2 to 14 measurements, unit not given in Table S1, read-out: In vitro potency, T. cruzi) it was 19 µM; with T. cruzi (setting [6]), 18.9 µM; in the series on L. infantum (setting [7]) it was 6.6 µM. Moreover, in the series on T. b. rhodesiense, the “activity as inhibitor of T. b. rhodesiense (in words)” value was “moderately active”. In addition, the “MRC-5 cells Human Lung Fibroblast Cells (cytotoxicity)” value in the series with MRC-5 cells is on record as >64 µM. In addition, in series [1], the “PMM Primary Mouse Macrophages” value is >64 µM. In the series with MDR1, this compound displayed a Papp B→A of 4.2 ×10⁻⁶ cm/s. Also, the efflux ratio with MDR1 (setting [8]) and with MDR1 (setting [9]) was 9.9 in each case. In the series on MDR1, this compound yielded a Papp A→B of 0.4 ×10⁻⁶ cm/s. For the same compound, the kinetic solubility in [2] (setting [10]) was 10.3 µg/mL; in series [2] (setting [11]) it was 16 µM. Also, the chromatographic logD in series [3] came to 4.4. Moreover, in [4] (CSV supplement), the “t(1/2), Mouse Microsomes” value is given as 8,4 min. Also, the values for the microsomal CLint in series [4] (setting [12]), in series [4] (setting [13]) and in [5] were 206 µL/min/mg, 210 µL/min/mg and 197 µL/min/mg, respectively. In [5], the “t(1/2), Human Microsomes” value was 8,8 min.
Take `CC(C)C[C@@H]1NC(=O)[C@@H](NC(=O)OC(C)(C)C)Cc2ccc(cc2)Oc2ccc(cc2NC(=O)c2ccccn2)C(=O)CNC1=O` [Compound 10, tert-Butyl ((8S,11S)-8-Isobutyl-4,7,10-trioxo-3^2-(picolinamido)-2-oxa-6,9-diaza-1,3(1,4)-dibenzenacyclododecaphane-11-yl)carbamate]: the EC50 turned out to be 8.5 µM in the series with T. b. brucei, 2.1 µM with T. b. rhodesiense, 50 µM in the series on T. cruzi (setting [6]) and 2.1 µM in the series on L. infantum (setting [7]). In addition, the “activity as inhibitor of T. b. rhodesiense (in words)” value in the series on T. b. rhodesiense is “moderately active”. Besides, the “MRC-5 cells Human Lung Fibroblast Cells (cytotoxicity)” value in the series on MRC-5 cells is >64 µM. Further, the “PMM Primary Mouse Macrophages” value in [1] is on record as >64 µM. In the series with MDR1, this compound had a Papp B→A of 6.8 ×10⁻⁶ cm/s. Further, the efflux ratio in the series on MDR1 (setting [8]) and in the series on MDR1 (setting [9]) was 3.1 each time. This compound had a Papp A→B in the series on MDR1 of 2.2 ×10⁻⁶ cm/s. Moreover, the kinetic solubility in series [2] (setting [10]) worked out at 4.8 µg/mL; in series [2] (setting [11]), 7.6 µM. In addition, the chromatographic logD in [3] is 4.8. Moreover, the “t(1/2), Mouse Microsomes” value in series [4] (CSV supplement) is <3 min. The values for the microsomal CLint in series [4] (setting [12]), in series [4] (setting [13]) and in series [5] were > 578 µL/min/mg, > 580 µL/min/mg and 361 µL/min/mg, respectively. Further, the “t(1/2), Human Microsomes” value in [5] is listed as 4,8 min.
